According to patent US20180000085A1, “USE OF PICOLINAMIDE COMPOUNDS WITH FUNGICIDAL ACTIVITY” (DOW AGROSCIENCES LLC, priority 2014, published 2018):

Experiments:
Zymoseptoria tritici = assay: Leaf blotch of wheat (SEPTTR) disease control on wheat seedlings; format: in vivo; set-up: key to SEPTTR 1DP, HV activity at 100 ppm (% control rating) / SEPTTR 3DC, HV activity at 100 ppm (% control rating) / SEPTTR disease control, 1DP / SEPTTR disease control, 3DC / SEPTTR 1DP disease control rating, HV activity / SEPTTR 3DC disease control rating, HV activity / SEPTTR 3DC, LV activity at 125.1 g/H (% Control rating) / SEPTTR 1DP, LV activity at 125.1 g/H (% Control rating) / SEPTTR 1DP disease control rating, LV activity at 125.1 g/H / SEPTTR 3DC disease control rating, LV activity at 125.1 g/H / SEPTTR 3DC disease control rating, HV activity at 100 ppm / SEPTTR 1DP disease control rating, HV activity at 100 ppm / HV activity at 100 ppm SEPTTR 3DC (disease control rating) / HV activity at 100 ppm SEPTTR 1DP (disease control rating) / LV activity at 125.1 g/H SEPTTR 1DP (disease control rating) / LV activity at 125.1 g/H SEPTTR 3DC (disease control rating): A: > 80; B: ≤ 80; C: Not Tested; D: No Activity Observed in the Reported Assay; settings: wheat leaf blotch; for HV activity at 100 ppm SEPTTR 1DP (disease control rating) / HV activity at 100 ppm SEPTTR 3DC (disease control rating): HV application; for HV activity at 100 ppm SEPTTR 1DP (disease control rating) / LV activity at 125.1 g/H SEPTTR 1DP (disease control rating): 1 Day Protectant; for HV activity at 100 ppm SEPTTR 3DC (disease control rating) / LV activity at 125.1 g/H SEPTTR 3DC (disease control rating): 3 Day Curative; for LV activity at 125.1 g/H SEPTTR 1DP (disease control rating) / LV activity at 125.1 g/H SEPTTR 3DC (disease control rating): low volume application
Puccinia triticina = assay: Wheat brown rust (PUCCRT) disease control on wheat seedlings; format: in vivo; settings: wheat brown rust; for HV activity at 100 ppm PUCCRT 1DP (disease control rating) / HV activity at 100 ppm PUCCRT 3DC (disease control rating): HV application; for HV activity at 100 ppm PUCCRT 1DP (disease control rating) / LV activity at 125.1 g/H PUCCRT 1DP (disease control rating): 1 Day Protectant; for HV activity at 100 ppm PUCCRT 3DC (disease control rating) / LV activity at 125.1 g/H PUCCRT 3DC (disease control rating): 3 Day Curative; for LV activity at 125.1 g/H PUCCRT 1DP (disease control rating) / LV activity at 125.1 g/H PUCCRT 3DC (disease control rating): low volume application

Compound | HV activity at 100 ppm SEPTTR 1DP (disease control rating) (Zymoseptoria tritici) | HV activity at 100 ppm SEPTTR 3DC (disease control rating) (Zymoseptoria tritici) | HV activity at 100 ppm PUCCRT 1DP (disease control rating) (Puccinia triticina) | HV activity at 100 ppm PUCCRT 3DC (disease control rating) (Puccinia triticina) | LV activity at 125.1 g/H SEPTTR 1DP (disease control rating) (Zymoseptoria tritici) | LV activity at 125.1 g/H SEPTTR 3DC (disease control rating) (Zymoseptoria tritici) | LV activity at 125.1 g/H PUCCRT 1DP (disease control rating) (Puccinia triticina) | LV activity at 125.1 g/H PUCCRT 3DC (disease control rating) (Puccinia triticina)
COc1ccnc(C(=O)N[C@@H](C)C(=O)O[C@@H](C)[C@@H](CC(C)C)Oc2ccc(Cl)cc2)c1O [Cmpd 1047] | B (≤ 80) | A (> 80) | A (> 80) | A (> 80) |  |  |  | 
COc1ccnc(C(=O)N[C@@H](C)C(=O)O[C@@H](C)[C@@H](CC(C)C)Oc2cccc(F)c2)c1O [Cmpd 1048] | B (≤ 80) | A (> 80) | A (> 80) | A (> 80) |  |  |  | 
COc1ccnc(C(=O)N[C@@H](C)C(=O)O[C@@H](C)[C@@H](CC(C)C)Oc2cc(F)ccc2F)c1O [Cmpd 1049] | A (> 80) | B (≤ 80) | A (> 80) | A (> 80) |  |  |  | 
COc1ccnc(C(=O)N[C@@H](C)C(=O)O[C@@H](C)[C@@H](CC(C)C)Oc2cccc(Cl)c2)c1O [Cmpd 1050] | A (> 80) | A (> 80) | A (> 80) | A (> 80) |  |  |  | 
COc1ccnc(C(=O)N[C@@H](C)C(=O)O[C@@H](C)[C@@H](CC(C)C)Oc2ccc(C)cc2Cl)c1O [Cmpd 1051] | B (≤ 80) | D | A (> 80) | B (≤ 80) |  |  |  | 
COc1cc(O[C@H](CC(C)C)[C@H](C)OC(=O)[C@H](C)NC(=O)c2nccc(OC)c2O)ccc1Cl [Cmpd 1052] | A (> 80) | A (> 80) | A (> 80) | A (> 80) |  |  |  | 
COc1ccnc(C(=O)N[C@@H](C)C(=O)O[C@@H](C)[C@H](Oc2cccc(Cl)c2)C2CC2)c1OC(C)=O [Cmpd 1053] |  |  |  |  | B (≤ 80) | A (> 80) | A (> 80) | A (> 80)
CCC[C@@H](Oc1ccc(Cl)c(OC)c1)[C@H](C)OC(=O)[C@H](C)NC(=O)c1nccc(OC)c1OC(C)=O [Cmpd 1054] |  |  |  |  | B (≤ 80) | B (≤ 80) | A (> 80) | A (> 80)
COc1ccnc(C(=O)N[C@@H](C)C(=O)O[C@@H](C)[C@H](Oc2cccc(Cl)c2)C(C)(C)C)c1OC(C)=O [Cmpd 1055] |  |  |  |  | B (≤ 80) | A (> 80) | A (> 80) | A (> 80)
CCC[C@@H](Oc1cccc(Cl)c1)[C@H](C)OC(=O)[C@H](C)NC(=O)c1nccc(OC)c1OC(C)=O [Cmpd 1056] |  |  |  |  | A (> 80) | A (> 80) | A (> 80) | A (> 80)
CCC[C@@H](OCC1CC1)[C@H](C)OC(=O)[C@H](C)NC(=O)c1nccc(OC)c1OC(C)=O [Cmpd 1057] |  |  |  |  | B (≤ 80) | B (≤ 80) | B (≤ 80) | A (> 80)
COc1ccnc(C(=O)N[C@@H](C)C(=O)O[C@@H](C)[C@H](Oc2ccc(C)cc2)C2CC2)c1OC(C)=O [Cmpd 1058] |  |  |  |  | B (≤ 80) | B (≤ 80) | A (> 80) | A (> 80)
COc1ccnc(C(=O)N[C@@H](C)C(=O)O[C@@H](C)[C@H](Oc2ccc(C)cc2)C(C)(C)C)c1OC(C)=O [Cmpd 1059] |  |  |  |  | B (≤ 80) | B (≤ 80) | A (> 80) | A (> 80)
CCC[C@@H](Oc1ccc(C)cc1)[C@H](C)OC(=O)[C@H](C)NC(=O)c1nccc(OC)c1OC(C)=O [Cmpd 1060] |  |  |  |  | B (≤ 80) | B (≤ 80) | A (> 80) | A (> 80)
COc1cccc(O[C@H](C2CC2)[C@H](C)OC(=O)[C@H](C)NC(=O)c2nccc(OC)c2OC(C)=O)c1 [Cmpd 1061] |  |  |  |  | D | B (≤ 80) | B (≤ 80) | A (> 80)
COc1cccc(O[C@@H]([C@H](C)OC(=O)[C@H](C)NC(=O)c2nccc(OC)c2OC(C)=O)C(C)(C)C)c1 [Cmpd 1062] |  |  |  |  | B (≤ 80) | B (≤ 80) | A (> 80) | A (> 80)
CCC[C@@H](Oc1cccc(OC)c1)[C@H](C)OC(=O)[C@H](C)NC(=O)c1nccc(OC)c1OC(C)=O [Cmpd 1063] |  |  |  |  | B (≤ 80) | A (> 80) | A (> 80) | A (> 80)
COc1ccnc(C(=O)N[C@@H](C)C(=O)O[C@@H](C)[C@H](Oc2ccccc2)C2CC2)c1OC(C)=O [Cmpd 1064] |  |  |  |  | B (≤ 80) | A (> 80) | A (> 80) | A (> 80)
COc1ccnc(C(=O)N[C@@H](C)C(=O)O[C@@H](C)[C@H](Oc2ccccc2)C(C)(C)C)c1OC(C)=O [Cmpd 1065] |  |  |  |  | B (≤ 80) | A (> 80) | A (> 80) | A (> 80)
COc1ccnc(C(=O)N[C@@H](C)C(=O)O[C@@H](C)[C@H](OCC2CC2)C2CC2)c1OC(C)=O [Cmpd 1066] |  |  |  |  | B (≤ 80) | B (≤ 80) | B (≤ 80) | A (> 80)
COc1ccnc(C(=O)N[C@@H](C)C(=O)O[C@@H](C)[C@H](Oc2ccc(C)cc2Cl)C(C)(C)C)c1OC(C)=O [Cmpd 1067] |  |  |  |  | D | B (≤ 80) | A (> 80) | B (≤ 80)
CCC[C@@H](Oc1ccc(C)cc1Cl)[C@H](C)OC(=O)[C@H](C)NC(=O)c1nccc(OC)c1OC(C)=O [Cmpd 1068] |  |  |  |  | B (≤ 80) | B (≤ 80) | A (> 80) | B (≤ 80)
COc1cc(O[C@H](C2CC2)[C@H](C)OC(=O)[C@H](C)NC(=O)c2nccc(OC)c2OC(C)=O)ccc1Cl [Cmpd 1069] |  |  |  |  | B (≤ 80) | B (≤ 80) | A (> 80) | A (> 80)
COc1cc(O[C@@H]([C@H](C)OC(=O)[C@H](C)NC(=O)c2nccc(OC)c2OC(C)=O)C(C)(C)C)ccc1Cl [Cmpd 1070] |  |  |  |  | B (≤ 80) | D | A (> 80) | A (> 80)
